Experimental data published in patent US10597388B2, “Pyridazinone herbicides” (FMC CORPORATION, priority 2014, dated 2020).

Columns and labels:
Assay in all cases: Test C greenhouse herbicide test, pre- and postemergence
Format in all cases: in vivo
[1] = test system: barnyardgrass (Echinochloa crus-galli)
Text: (§1) Seeds of plant species selected from blackgrass (Alopecurus myosuroides), ryegrass, Italian (Italian ryegrass, Lolium multiflorum), wheat (winter wheat, Triticum aestivum), galium (catchweed bedstraw, Galium aparine), corn (Zea mays), large crabgrass, large (large crabgrass, Digitaria sanguinalis), foxtail, giant (giant foxtail, Setaria faberii), johnsongrass (Sorghum halepense), lambsquarters (Chenopodium album), morningglory (Ipomoea coccinea), nutsedge, yellow (yellow nutsedge, Cyperus esculentus), pigweed (Amaranthus retroflexus), ragweed (common ragweed, Ambrosia elatior), soybean (Glycine max), barnyardgrass (Echinochloa crus-galli), oilseed rape (Brassica napus), waterhemp (common waterhemp, Amaranthus rudis), and velvetleaf (Abutilon theophrasti) were planted into a blend of loam soil and sand and treated preemergence with test chemicals formulated in a non-phytotoxic solvent mixture which included a surfactant.
(§2) At the same time, plants selected from these crop and weed species and also chickweed (common chickweed, Stellaria media), kochia (Kochia scoparia), and oat, wild (wild oat, Avena fatua), were planted in pots containing Redi-Earth® planting medium (Scotts Company, 14111 Scottslawn Road, Marysville, Ohio 43041) comprising spaghnum peat moss, vermiculite, wetting agent and starter nutrients and treated with postemergence applications of test chemicals formulated in the same manner. Plants ranged in height from 2 to 18 cm (1- to 4-leaf stage) for postemergence treatments. Treated plants and controls were maintained in a greenhouse for 13 to 15 d, after which time all species were compared to controls and visually evaluated. Plant response ratings, summarized in Table C, are based on a scale of 0 to 100 where 0 is no effect and 100 is complete control. A dash (-) response means no test result.

[2] = test system: blackgrass (Alopecurus myosuroides)
Text: as §1, §2

[3] = test system: corn (Zea mays)
Text: as §1, §2

[4] = test system: foxtail, giant (giant foxtail, Setaria faberii)
Text: as §1, §2

[5] = test system: galium (catchweed bedstraw, Galium aparine)
Text: as §1, §2

[6] = test system: johnsongrass (Sorghum halepense)
Text: as §1, §2

[7] = test system: lambsquarters (Chenopodium album)
Text: as §1, §2

[8] = test system: morningglory (Ipomoea coccinea)
Text: as §1, §2

[9] = test system: nutsedge, yellow (yellow nutsedge, Cyperus esculentus)
Text: as §1, §2

[10] = test system: pigweed (Amaranthus retroflexus)
Text: as §1, §2

[11] = test system: ragweed (common ragweed, Ambrosia elatior)
Text: as §1, §2

[12] = test system: ryegrass, Italian (Italian ryegrass, Lolium multiflorum)
Text: as §1, §2

[13] = test system: soybean (Glycine max)
Text: as §1, §2

[14] = test system: velvetleaf (Abutilon theophrasti)
Text: as §1, §2

[15] = test system: waterhemp (common waterhemp, Amaranthus rudis)
Text: as §1, §2

[16] = test system: wheat (winter wheat, Triticum aestivum)
Text: as §1, §2

[17] = Postemergence, 16 g ai/ha, scale 0 to 100 (0 no effect, 100 complete control)
[18] = Postemergence, 31 g ai/ha, 0 to 100 scale (0 no effect, 100 complete control)
[19] = Postemergence, 125 g ai/ha, scale 0 to 100, 0 is no effect, 100 is complete control
[20] = postemergence, 62 g ai/ha, scale 0 to 100, 0 no effect, 100 complete control

Question: For COc1ccc2ccccc2c1-c1c(O)c(C)nn(C)c1=O [Compound 40], which “Plant response rating, Barnyardgrass” value [1, 17] is on record?
Answer: The value was 5.

Question: What about the “Barnyardgrass plant response rating” value [1, 18] of the same compound?
Answer: The value was 5.

Question: What about the “Plant response rating, Barnyardgrass” value [1, 19] of the same compound?
Answer: Its value is 25.

Question: And the “Barnyardgrass plant response rating” value [1, 20]?
Answer: Its value is 15.

Question: What about the “Plant response rating, Blackgrass” value [2, 17] of the same compound?
Answer: The value was 5.

Question: And the “Blackgrass plant response rating” value [2, 18]?
Answer: Its value is 5.

Question: And the “Plant response rating, Blackgrass” value [2, 19]?
Answer: The value was 45.

Question: What about the “Blackgrass plant response rating” value [2, 20] of the same compound?
Answer: Its value is 15.

Question: What about the “Plant response rating, Corn” value [3, 17] of the same compound?
Answer: Its value is 0.

Question: What about the “Corn plant response rating” value [3, 18] of the same compound?
Answer: Its value is 0.

Question: What about the “Plant response rating, Corn” value [3, 19] of the same compound?
Answer: Its value is 20.

Question: What about the “Corn plant response rating” value [3, 20] of the same compound?
Answer: Its value is 0.

Question: And the “Plant response rating, Foxtail, Giant” value [4, 17]?
Answer: The value was 5.

Question: What about the “Foxtail, Giant plant response rating” value [4, 18] of the same compound?
Answer: The value was 5.

Question: What about the “Plant response rating, Foxtail, Giant” value [4, 19] of the same compound?
Answer: The value was 20.

Question: And the “Foxtail, Giant plant response rating” value [4, 20]?
Answer: Its value is 15.

Question: And the “Plant response rating, Galium” value [5, 17]?
Answer: The value was 30.

Question: And the “Galium plant response rating” value [5, 18]?
Answer: Its value is 80.

Question: And the “Plant response rating, Galium” value [5, 19]?
Answer: The value was 90.

Question: What about the “Galium plant response rating” value [5, 20] of the same compound?
Answer: The value was 85.

Question: And the “Plant response rating, Johnsongrass” value [6, 17]?
Answer: Its value is 0.

Question: And the “Johnsongrass plant response rating” value [6, 18]?
Answer: Its value is 0.

Question: What about the “Plant response rating, Johnsongrass” value [6, 19] of the same compound?
Answer: Its value is 5.

Question: And the “Johnsongrass plant response rating” value [6, 20]?
Answer: Its value is 5.

Question: What about the “Plant response rating, Lambsquarters” value [7, 17] of the same compound?
Answer: Its value is 50.

Question: And the “Lambsquarters plant response rating” value [7, 18]?
Answer: The value was 70.

Question: What about the “Plant response rating, Lambsquarters” value [7, 19] of the same compound?
Answer: The value was 80.

Question: And the “Lambsquarters plant response rating” value [7, 20]?
Answer: Its value is 70.

Question: What about the “Plant response rating, Morningglory” value [8, 17] of the same compound?
Answer: The value was 5.

Question: And the “Morningglory plant response rating” value [8, 18]?
Answer: Its value is 55.

Question: And the “Plant response rating, Morningglory” value [8, 19]?
Answer: Its value is 80.

Question: What about the “Morningglory plant response rating” value [8, 20] of the same compound?
Answer: Its value is 65.

Question: What about the “Plant response rating, Nutsedge, Yellow” value [9, 17] of the same compound?
Answer: The value was 0.

Question: And the “Nutsedge, Yellow plant response rating” value [9, 18]?
Answer: The value was 0.

Question: And the “Plant response rating, Nutsedge, Yellow” value [9, 19]?
Answer: The value was 20.

Question: What about the “Nutsedge, Yellow plant response rating” value [9, 20] of the same compound?
Answer: Its value is 15.

Question: And the “Plant response rating, Pigweed” value [10, 17]?
Answer: The value was 15.

Question: What about the “Pigweed plant response rating” value [10, 18] of the same compound?
Answer: Its value is 35.

Question: What about the “Plant response rating, Pigweed” value [10, 19] of the same compound?
Answer: Its value is 85.

Question: And the “Pigweed plant response rating” value [10, 20]?
Answer: Its value is 65.

Question: And the “Plant response rating, Ragweed” value [11, 17]?
Answer: Its value is 25.

Question: And the “Ragweed plant response rating” value [11, 18]?
Answer: Its value is 45.

Question: What about the “Plant response rating, Ragweed” value [11, 19] of the same compound?
Answer: The value was 85.

Question: What about the “Ragweed plant response rating” value [11, 20] of the same compound?
Answer: Its value is 75.

Question: What about the “Plant response rating, Ryegrass, Italian” value [12, 17] of the same compound?
Answer: The value was 10.

Question: What about the “Ryegrass, Italian plant response rating” value [12, 18] of the same compound?
Answer: Its value is 50.

Question: And the “Plant response rating, Ryegrass, Italian” value [12, 19]?
Answer: The value was 80.

Question: And the “Ryegrass, Italian plant response rating” value [12, 20]?
Answer: The value was 65.

Question: And the “Plant response rating, Soybean” value [13, 17]?
Answer: The value was 35.

Question: And the “Soybean plant response rating” value [13, 18]?
Answer: Its value is 5.

Question: What about the “Plant response rating, Soybean” value [13, 19] of the same compound?
Answer: Its value is 30.

Question: And the “Soybean plant response rating” value [13, 20]?
Answer: The value was 60.

Question: What about the “Plant response rating, Velvetleaf” value [14, 17] of the same compound?
Answer: The value was 5.

Question: What about the “Velvetleaf plant response rating” value [14, 18] of the same compound?
Answer: Its value is 5.

Question: And the “Plant response rating, Velvetleaf” value [14, 19]?
Answer: Its value is 20.

Question: And the “Velvetleaf plant response rating” value [14, 20]?
Answer: The value was 10.

Question: And the “Plant response rating, Waterhemp” value [15, 17]?
Answer: The value was 20.

Question: And the “Waterhemp plant response rating” value [15, 18]?
Answer: Its value is 65.

Question: And the “Plant response rating, Waterhemp” value [15, 19]?
Answer: Its value is 80.

Question: What about the “Waterhemp plant response rating” value [15, 20] of the same compound?
Answer: Its value is 65.

Question: What about the “Plant response rating, Wheat” value [16, 17] of the same compound?
Answer: The value was 0.

Question: And the “Wheat plant response rating” value [16, 18]?
Answer: The value was 10.

Question: And the “Plant response rating, Wheat” value [16, 19]?
Answer: Its value is 10.

Question: And the “Wheat plant response rating” value [16, 20]?
Answer: The value was 10.
